Test results taken from patent US11987589B2, “Heterocyclic flavone derivatives, compositions, and methods related thereto” (Emory University, priority 2018, dated 2024).
Entries after “also recorded” stand apart in the source; their conditions may differ. Read-outs that look alike come from different tables or passages of the source.

What was measured:
[1] = human, hepatocytes
[2] = mouse, hepatocytes
Plasma Stability (human) = type: in vitro ADME
Plasma Stability (mouse) = type: in vitro ADME
BBB-PAMPA Permeability = type: in vitro ADME
TrkB [3] = biological target: T1, TrkB (Rattus norvegicus, UniProt Q63604); assay: TrkB activation in rat TrkB stably transfected SN56 cells (T48), immunoblotting; type: cell-based
T1 construct: expressed in transfected cells

T48 cells = assay: Protection from staurosporine (STS)-induced apoptosis, MTT assay, T48 cells; type: cell-based
Procedure: Cytoprotective effects were tested. To examine whether these compounds protect cells from staurosporine (STS)-induced apoptosis, MTT assays were conducted using TrkB stable transfected cells or TrkB deficient SN56 cells.

TrkB [4] = assay: Endogenous TrkB activation in DIV13 primary cortical cultures, immunoblotting; type: cell-based; details: 15 min
Procedure: Endogenous TrkB activation in primary neurons were tested in DIV13 primary cortical cultures. The neurons were treated with the two compounds with doses for 15 min. The lysates were analyzed by immunoblotting with antibodies.

[5] = Hepatocyte Stability (human); details: hepatocytes
[6] = Hepatocyte Stability (mouse); details: hepatocytes
[7] = Microsomal Intrinsic Clearance (human); details: liver microsomes; for microsomal CLint: Human microsomes
[8] = Microsomal Intrinsic Clearance (mouse); details: liver microsomes; for microsomal CLint: Mouse microsomes
in vivo [9] = details: ICR, mouse, po, 5 mg/kg
Procedure: The compounds were orally administered into wild-type mice or 3×Tg, an Alzheimer's disease (AD) mouse model. […] Pharmacokinetic analysis was performed using non-compartmental methods.

in vivo [10] = details: mouse; for B/P Ratio, individual animal / Plasma concentration, Mean / Kp at 1 h / Kp at 2 h / Kp at 4 h: male; for Kp at 1 h / Kp at 2 h / Kp at 4 h: B/P Ratio
Procedure: The concentration ratio of brain/plasma was calculated, and PK analysis was performed using a non-compartmental method.

TrkB [11] = biological target: T2, TrkB (Mus musculus, UniProt P15209); assay: TrkB activation in brain of 5×FAD mice after chronic oral administration; type: in vivo
T2 construct: from tissue; host or cells: brain (hippocampus) of 5xFAD mice
Source text: After 3 months of drug treatment, TrkB activation was monitored in the mouse brain by immunofluorescence with anti-phosphorylated TrkB (p-TrkB) antibody.

5×FAD mice [12] = assay: Synaptic loss and plasticity in 5×FAD mice (Golgi staining, electron microscopy, immunoblotting, LTP); type: in vivo, mouse
Procedure: The dendritic spines from apical dendritic layer of the CA1 region were analyzed by Golgi staining. (Scale bar, […]). On top is quantitative analysis of the spine density.
Synaptic loss is believed to be the basis of cognitive impairment in the early phase of Alzheimer's disease. […] The density of dendritic spines along individual dendrites of pyramidal neurons were assessed by Golgi staining. […] Since one dendritic spine can form more than one synapse, the densities of synapse in the CA1 area were quantified in 5×FAD mice brain by electron microscopy. […] Immunoblotting was done using pre-synaptic markers (synaptotagmin) and post-synaptic markers (GluR1, PSD95 and spinophilin).

Aβ = Aβ deposition in 5×FAD mice (immunohistochemistry, thioflavin-S, ELISA); type: in vivo, mouse
Procedure: The deposition of Aβ was tested by immunohistochemistry with anti-AP antibody.

5×FAD mice [13] = assay: Morris water maze test in 5×FAD mice; type: in vivo, mouse
Procedure: The hippocampus-dependent spatial memory of 5×FAD mice was tested by Morris water maze test. The average latency and swim path length for each of the 5 acquisition days were calculated and plotted. […] The memory recall for the platform location was assessed in the probe trail when the platform was removed, and the mice were allowed to search for 60 s.

[14] = tested on: Delta-secretase (AEP, asparagine endopeptidase); assay: AEP activation and APP and Tau proteolytic cleavage in 5×FAD mice; type: in vivo, mouse
Procedure: The processing of APP and Tau by AEP was evaluated by western blot.
Delta-secretase (AEP, asparagine endopeptidase) cleaves both APP and Tau, mediating AD pathogenesis. […] To further investigate APP proteolytic cleavage activity by AEP, immunofluorescent co-staining was conducted on 5×FAD brain section with anti-APP C585 and AEP antibodies.

Water solubility = type: physicochemical
IL-6 = assay: Inflammatory factor IL-6 in 5×FAD mouse brains; type: in vivo
[15] = In vitro plasma, hepatocyte and liver microsomal stability assays (summary statement); type: in vitro ADME
[16] = NADPH-dependent CLint, with NADPH
[17] = NADPH-dependent T1/2, Human microsomes, with NADPH
[18] = NADPH-free T1/2, Human microsomes, NADPH-free
[19] = NADPH-dependent T1/2, Mouse microsomes, with NADPH
[20] = NADPH-free T1/2, Mouse microsomes, NADPH-free
[21] = ICR, iv, 2 mg/kg, individual animal

T1 sequence (Q63604 32-821): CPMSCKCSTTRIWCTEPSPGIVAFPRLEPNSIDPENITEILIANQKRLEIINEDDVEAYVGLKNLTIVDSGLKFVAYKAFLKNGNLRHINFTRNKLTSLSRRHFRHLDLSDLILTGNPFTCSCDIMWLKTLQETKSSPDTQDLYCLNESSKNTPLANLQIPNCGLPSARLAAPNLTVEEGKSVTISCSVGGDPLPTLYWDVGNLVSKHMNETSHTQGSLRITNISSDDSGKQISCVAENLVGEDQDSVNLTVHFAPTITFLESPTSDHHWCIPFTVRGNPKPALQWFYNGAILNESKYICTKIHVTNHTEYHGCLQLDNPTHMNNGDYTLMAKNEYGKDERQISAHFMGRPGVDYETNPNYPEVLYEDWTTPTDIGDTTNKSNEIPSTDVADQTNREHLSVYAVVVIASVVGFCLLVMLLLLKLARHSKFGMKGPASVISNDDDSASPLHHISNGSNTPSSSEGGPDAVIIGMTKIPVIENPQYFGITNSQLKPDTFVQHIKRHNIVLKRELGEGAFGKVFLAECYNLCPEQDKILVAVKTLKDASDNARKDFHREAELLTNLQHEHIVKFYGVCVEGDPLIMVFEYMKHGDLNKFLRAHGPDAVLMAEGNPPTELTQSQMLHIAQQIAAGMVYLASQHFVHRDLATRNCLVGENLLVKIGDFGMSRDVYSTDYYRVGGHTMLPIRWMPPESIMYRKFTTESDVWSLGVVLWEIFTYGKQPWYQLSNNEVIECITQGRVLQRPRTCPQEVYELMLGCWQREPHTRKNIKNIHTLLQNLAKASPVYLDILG
T2 sequence (P15209 32-821): as the sequence (Q63604 32-821) above, with M3T, T9S, T10A, I32V, K63R, G84S, T153M, I185L, T394S, N770S counted along it

O=c1ccc2ccc(O)cc2o1 [7-OH-Coumarin]
Avg % Remaining at Last Point [1]: 7.17% | Clearance [1]: 88.5 μl/min/million cells | Half Life [1]: 0.262 h | Avg % Remaining at Last Point [2]: 38.8% | Clearance [2]: 63.2 μl/min/million cells | Half Life [2]: 0.365 h

CC(=O)CC(c1ccccc1)c1c(O)c2ccccc2oc1=O (stereo not shown) [Warfarin, reference compound]
Avg % Remaining at Last Point (Plasma Stability (human)): 93.6% | Avg % Remaining at Last Point (Plasma Stability (mouse)): 80.8%

Cn1c(=O)[nH]c2ccc3c(=O)cc(-c4ccc(C#N)cc4)oc3c21 [RM-CN, 4-(1-methyl-2,6-dioxo-1,2,3,6-tetrahydrochromeno[7,8-d]imidazol-8-yl)benzonitrile]
Pe (BBB-PAMPA Permeability; Test Conc. 1 μM): 2.82 | recovery at 1 μM (BBB-PAMPA Permeability; Test Conc. 1 μM): 71% | Avg % Remaining at Last Point (Plasma Stability (human)): 91.1% | half-life (Plasma Stability (human)): > 8 h | Avg % Remaining at Last Point (Plasma Stability (mouse)): 80.3% | half-life (Plasma Stability (mouse)): 5.75 h | effects on p-TrkB 816 (TrkB [3]; different doses, 15 min): behaved inversely | p-Akt/p-MAPK downstream signals (TrkB [3]; different doses, 15 min): increased in a dose-dependent manner | p-TrkB 706 activation (TrkB [3]; different doses, 15 min): activated p-TrkB 706 gradually | EC50 (T48 cells): 12.5 nM | TrkB activation in primary neurons (TrkB [4]): dose-dependent effect in triggering TrkB activation | Avg % Remaining at Last Point [5]: 54.8% | half-life [5]: 2.22 h | hepatocyte CLint [5]: 10.5 µL/min/1e6 cells | Avg % Remaining at Last Point [6]: 67.1% | half-life [6]: 4.58 h | hepatocyte CLint [6]: 5.04 µL/min/1e6 cells | microsomal CLint [7, 16]: 30.3 µL/min/mg | half-life [7, 17]: 1.27 h | microsomal CLint ([7]; NADPH-free CLint, NADPH-free): < 12.8 µL/min/mg | half-life [7, 18]: > 3 h | microsomal CLint [8, 16]: 231 µL/min/mg | half-life [8, 19]: 0.167 h | microsomal CLint ([8]; NADPH-free CLint, NADPH-free): < 12.8 µL/min/mg | half-life [8, 20]: > 3 h

Cc1ncc2n1-c1ccc(Cl)cc1C(c1ccccc1F)=NC2 [Midazolam, reference compound]
Avg % Remaining at Last Point [5]: 9.82% | half-life [5]: 0.595 h | hepatocyte CLint [5]: 38.8 µL/min/1e6 cells | Avg % Remaining at Last Point [6]: 34.0% | half-life [6]: 0.657 h | hepatocyte CLint [6]: 35.1 µL/min/1e6 cells | microsomal CLint [7, 16]: 511 µL/min/mg | half-life [7, 17]: 0.0753 h | microsomal CLint ([7]; NADPH-free CLint, NADPH-free): < 12.8 µL/min/mg | half-life [7, 18]: > 3 h | microsomal CLint [8, 16]: 1100 µL/min/mg | half-life [8, 19]: 0.035 h | microsomal CLint ([8]; NADPH-free CLint, NADPH-free): < 12.8 µL/min/mg | half-life [8, 20]: > 3 h

CC(C)[N+](C)(CCOC(=O)C1c2ccccc2Oc2ccccc21)C(C)C [Propantheline, reference compound]
Avg % Remaining at Last Point (Plasma Stability (human)): 3.15% | half-life (Plasma Stability (human)): 0.398 h | half-life (Plasma Stability (mouse)): 0.37 h

N#Cc1ccc(-c2cc(=O)c3ccc4[nH]c(C(F)(F)F)nc4c3o2)cc1 [CF3-CN, 4-(6-oxo-2-(trifluoromethyl)-3,6-dihydrochromeno[7,8-d]imidazol-8-yl)benzonitrile]
Pe (BBB-PAMPA Permeability; Test Conc. 10 μM): 3.09 | recovery at 10 μM (BBB-PAMPA Permeability; Test Conc. 10 μM): 89.9% | Avg % Remaining at Last Point (Plasma Stability (human)): 94.2% | half-life (Plasma Stability (human)): > 8 h | Avg % Remaining at Last Point (Plasma Stability (mouse)): 107% | half-life (Plasma Stability (mouse)): > 8 h | EC50 (TrkB [3]; treated 15 min, immunoblotting, read-out: EC50 of p-TrkB 706 and 816 activation): 21.6 nM | EC50 (T48 cells): 26.7 nM | TrkB activation in primary neurons (TrkB [4]): dose-dependent effect in triggering TrkB activation | AUC (in vivo [9]): 68500 ng·h/mL | Cmax (in vivo [10]; ICR, iv, 2 mg/kg): 12700 ng/mL | Tmax (in vivo [10]; ICR, iv, 2 mg/kg): 4.8 min | B/P Ratio, individual animal (in vivo [10]; ICR, iv, 2 mg/kg, 1 h): 0.01 | Plasma concentration, Mean (in vivo [10]; ICR, iv, 2 mg/kg, 1 h): 5288.5 ng/mL | B/P Ratio, individual animal (in vivo [10]; ICR, iv, 2 mg/kg, 2 h): 0.01 | Plasma concentration, Mean (in vivo [10]; ICR, iv, 2 mg/kg, 2 h): 2154.5 ng/mL | Plasma concentration, Mean (in vivo [10]; ICR, iv, 2 mg/kg, 4 h): 544.8 ng/mL | Kp at 1 h (in vivo [10]; ICR, iv, 2 mg/kg, Mean): 0.01 | Kp at 2 h (in vivo [10]; ICR, iv, 2 mg/kg, Mean): 0.01 | Kp at 4 h (in vivo [10]; ICR, iv, 2 mg/kg, Mean): 0.02 | Kp at 1 h (in vivo [10]; [21]): 0.02 | Kp at 2 h (in vivo [10]; [21]): 0.01 | Kp at 4 h (in vivo [10]; [21]): 0.02 | passage of the blood-brain barrier (in vivo [10]): can pass the blood-brain barrier | TrkB activation in the hippocampus (TrkB [11]; oral 3 mg/kg, anti-p-TrkB Y816 immunofluorescence): provoked TrkB activation in the hippocampus | total TrkB level in mouse brain (TrkB [11]; oral, 3 months of treatment): not total TrkB level were notably elevated | TrkB activation (p-TrkB signals) in mouse brain (TrkB [11]; oral, 3 months of treatment, vs vehicle): markedly activated | phosphorylation of TrkB receptors and downstream AKT and ERK/MAPK pathways (TrkB [11]; oral, 3 months, vs vehicle control): more prominently phosphorylated | LTP (long-term potentiation) (5×FAD mice [12]; fEPSPs induced by 3×TBS, vs vehicle): increased LTP; also recorded: reversed the LTP impairment | synaptic markers (synaptotagmin, GluR1, PSD95, spinophilin), immunoblotting (5×FAD mice [12]; repeated oral administration): reversed the reduction of synaptic markers | synaptic density (electron microscopy) (5×FAD mice [12]; repeated oral administration, CA1 area): remarkably reversed the loss of synaptic density in a dose-dependent way | density of dendritic spines (Golgi staining) (5×FAD mice [12]; repeated oral administration, CA1 region): noticeably rescued; also recorded: prevents or reverses the synaptic loss | number of plaques and plaque area fraction (Aβ; cortex and hippocampus, vs vehicle control): significantly decreased | Aβ42 concentrations (ELISA) (Aβ; differences not statistically significant): reduction trend | Aβ deposition (immunohistochemistry) (Aβ; oral, vs vehicle group): significantly lower; also recorded: decreases Aβ plaque deposition | learning impairment, area under curve (AUC) of latency (5×FAD mice [13]; Morris water maze, 5 acquisition days): attenuated; also recorded: improves the spatial learning and memory | AUC of the swim path distance (5×FAD mice [13]; Morris water maze, no significant statistic differences): reduction trend | percentage of time spent in target quadrant (5×FAD mice [13]; probe trial, 60 s): significantly higher percentage of time in the target quadrant | Tau N368 staining ([14]; 5×FAD brain section): repressed | APP C585 immuno-signals ([14]; 5×FAD brain section, immunofluorescent co-staining): strongly inhibited | AEP activity (enzymatic assay) ([14]; 5×FAD mice, 3 mg/kg): blocked | AEP expression in Hippocampus ([14]; 5×FAD mice, immunofluorescence): progressively attenuated | Mature and active AEP (immunoblotting) ([14]; 5×FAD mouse brains): decreased; also recorded: significantly inhibited AEP activation | AEP-cleaved APP N373, N585 and Tau N368 truncates ([14]; 5×FAD mouse brains, western blot): reduction; also recorded: attenuated Tau and APP cleavage | water solubility (comparison) (Water solubility): more water soluble than RM-CN | inflammatory factors IL-6 (IL-6): repressed | stability (comparison) [15]: more stable than RM-CN | Avg % Remaining at Last Point [5]: 97.2% | half-life [5]: > 8 h | hepatocyte CLint [5]: < 2.9 µL/min/1e6 cells | Avg % Remaining at Last Point [6]: 94.8% | half-life [6]: > 8 h | hepatocyte CLint [6]: < 2.9 µL/min/1e6 cells | microsomal CLint [7, 16]: < 12.8 µL/min/mg | half-life [7, 17]: > 3 h | microsomal CLint ([7]; NADPH-free CLint, NADPH-free): < 12.8 µL/min/mg | half-life [7, 18]: > 3 h | microsomal CLint [8, 16]: < 12.8 µL/min/mg | half-life [8, 19]: > 3 h | microsomal CLint ([8]; NADPH-free CLint, NADPH-free): < 12.8 µL/min/mg | half-life [8, 20]: > 3 h

CC(C)NCC(O)COc1ccc(CC(N)=O)cc1 (stereo not shown) [Atenolol, reference compound]
recovery at 10 μM (BBB-PAMPA Permeability; Test Conc. 10 μM): 84.6%
